Experimental data taken from patent US9288991B2 (Rohm and Haas Company, priority 2012, dated 2016).

What was measured:
[1] = tested on: Chlorella sp. ATCC 7516; assay: Algal efficacy testing of dry paint film (modified ASTM 5589), Chlorella; assay type: cell-based
Protocol: (§1) These paints were then diluted with an antimicrobial free acrylic/silicone based paint and mixed to prepare targeted concentrations of antimicrobial compounds for the testing. The total biocides concentrations tested were 125, 250, 500, 1000, 2000 and 5000 ppm. After biocides addition or dilution, the paints were mixed 90 seconds with the horse power shaker (AXEL 75M3372/Agitateur SO-10MI) until uniformity was achieved. Paints containing different antimicrobial compounds at the same levels were mixed together in order to obtain the desired ratio of antimicrobial compounds. After one day, the paints were applied to Schleicher & Schuell filter paper at 280 μm wet film thickness and dried for 3 days at room temperature avoiding direct exposure to sunlight. Square discs (1.6 cm×1.6 cm) were cut out from each panel and were used as the substrate for algal efficacy tests. This sample size allowed for an agar border when the sample disc was placed into the well of the test plate.
(§2) Algal efficacy was tested according to modified ASTM 5589 which is a standard accelerated test method for determining resistance of various coatings (including paints) to algal defacement. To accommodate for high-throughput screening, this method was scaled down from petri dishes to 6-well plates. Bold Modified Basal Freshwater Nutrient Solution was used as growth medium. A single coated filter paper coupon was placed with a pair of sterile forceps at the center of the agar plug (on top) with the painted surface facing upwards. Algal inoculums were prepared by mixing equal concentrations (1×10^6 cfu/ml) and equal volumes of exponentially growing algae cultures.
(§3) Each well that contains a tested coupon was inoculated with 1750 μl of algal suspensions (1×10^6 cfu/ml) making sure that the whole surface (paint film as well as the agar surrounding it) was evenly covered. […]
(§4) At the end of the three week incubation period, the samples were scored for percent inhibition regarding visible algal growth compared to the blank sample (0% inhibition).
(§5) The SI is calculated based on F. C. […]

[2] = tested on: Stichococcus bacillaris SAG 379-1a / CCAP 379/1a; assay: Algal efficacy testing of dry paint film (modified ASTM 5589), Stichococcus; assay type: cell-based
Protocol: as §1, §2, §3, §4, §5

[3] = total active in paint, 3 weeks incubation, maximum tested conc given if pass not reached

Row | Structure (SMILES) | inhibition at 5000 ppm ([1]; 504 h, total conc 5000 ppm, 3 weeks, visible algal growth vs blank) [%] | inhibition at 5000 ppm ([2]; Stichococcus bacillaris, 504 h, total conc 5000 ppm, 3 weeks, visible algal growth vs blank) [%] | Total conc (minimum inhibitory concentration chosen for SI; pass level ≧75% inhibition) [1, 3] [ppm] | % inhibition ([1]; total conc 1000 ppm, 3 weeks, visible algal growth vs blank) [%] | Total conc (minimum inhibitory concentration chosen for SI; pass level ≧75% inhibition) [2, 3] [ppm] | % inhibition ([2]; total conc 500 ppm, 3 weeks, visible algal growth vs blank) [%]
1 | O=c1[nH]c2c(c(=O)n1C1CCCCC1)CCC2 [Lenacil, 3-cyclohexyl-1,5,6,7-tetrahydrocyclopentapyrimidine-2,4(3H)-dione] | 30 | 70 | – | – | – | –
2 | [O-][n+]1ccccc1[S][Zn][S]c1cccc[n+]1[O-] [ZnPT, bis(2-pyridylthio)zinc 1,1′-dioxide] | – | – | 1000 | 100 | 500 | 75
